{"source": "patent US20030235916A1", "about": "“Novel methods for the delivery of polynucleotides to cells” (priority 2002, published 2003)", "key": {"[1]": {"test_system": "rhodamine labeled PCILuc DNA (pDNA)", "experiment": "Rhodamine labeled DNA condensation with cationic surfactants (fluorescence quenching), Example 19", "format": "physicochemical", "method": "(§1) PCILuc DNA (pDNA) [Zhang et al. 1997] was modified to a level of 1 rhodamine per 100 bases using Mirus' Label IT® Rhodamine kit (Rhodamine Containing DNA Labeling Reagent, Mirus Corporation). The modified pDNA (10 μg) was mixed with pDNA that was not labeled (90 μg) in water and diluted to a final concentration of 1 μg/μL with water. The modified pDNA/pDNA mixture (5 μg) was diluted with water to a final volume of 500 μL. Different amounts of CTAB were added to the solution and the fluorescence intensity of the solution was measured using a Cary Eclipse Fluorescence Spectrophotometer (ex=555, em=585, Varian, Inc.). Trubetskoy et al have shown that rhodamine labeled pDNA undergoes fluorescence quenching as the pDNA is condensed [Trubetskoy, 1999].\nas §1, with “It®” for “IT®”, “dodecylamine hydrochloride” for “CTAB”"}, "[2]": {"test_system": "luciferase expression (pCI Luc / pCI Ren) in liver of ICR mice", "experiment": "HP tail vein dual luciferase: siRNA delivery (Example 77)", "format": "in vivo", "conditions": "hydrophobic siRNA", "method": "HP Tail Vein Dual Luciferase: siRNA delivery Five complexes were prepared as follows:\nTail vein injections of 1.0 mL per 10 g body weight (˜2.5 ml) were preformed on ICR mice (n=2) using a 30 gauge, 0.5 inch needle. Injections were done manually with injection times of 4-5 sec [Zhang et al. 1999; Liu et al. 1999]. One day after injection, the livers were harvested and homogenized in lysis buffer (0.1% Triton X-100, 0.1 M K-phosphate, 1 mM DTT, pH 7.8). Insoluble material was cleared by centrifugation and 10 μl of the cellular extract or extract diluted 10× was analyzed for luciferase activity as previously reported [Wolffetal 1990]."}}, "note": "d = 2'-deoxy (DNA); r = 2'-OH (RNA)"}
{"compound": "CCCCCCCCCCCCCCCC[N+](C)(C)C.[Br-]", "note": "[CTAB, cetyltrimethylammonium bromide, reference compound]", "values": [{"measurement": "surfactant concentration at which the pDNA is condensed", "setting": "[1]; 5 μg rhodamine pDNA mixture in 500 μL water", "value": 0.33, "unit": "mM"}, {"measurement": "Fluor Int", "setting": "[1]; N/P 0.4, 2 μg CTAB, 0.011 mM CTAB, 5 μg pDNA in 500 μL water, ex=555, em=585", "value": 201.540}, {"measurement": "Fluor Int", "setting": "[1]; N/P 0.7, 4 μg CTAB, 0.022 mM CTAB", "value": 159.277}, {"measurement": "Fluor Int", "setting": "[1]; N/P 1.1, 6 μg CTAB, 0.033 mM CTAB", "value": 85.253}, {"measurement": "Fluor Int", "setting": "[1]; N/P 1.4, 8 μg CTAB, 0.044 mM CTAB", "value": 81.625}, {"measurement": "Fluor Int", "setting": "[1]; N/P 1.8, 10 μg CTAB, 0.055 mM CTAB", "value": 78.471}, {"measurement": "Fluor Int", "setting": "[1]; N/P 2.2, 12 μg CTAB, 0.066 mM CTAB", "value": 74.722}, {"measurement": "Fluor Int", "setting": "[1]; N/P 2.5, 14 μg CTAB, 0.077 mM CTAB", "value": 67.267}, {"measurement": "Fluor Int", "setting": "[1]; N/P 2.9, 16 μg CTAB, 0.088 mM CTAB", "value": 62.799}]}
{"compound": "CCCCCCCCCCCCN.Cl", "note": "[NC12, dodecylamine hydrochloride]", "values": [{"measurement": "Fluor Int", "setting": "[1]; N/P 0.6, 2 μg NC12, 0.018 mM NC12, 5 μg pDNA in 500 μL water, ex=555, em=585", "value": 183.656}, {"measurement": "Fluor Int", "setting": "[1]; N/P 1.2, 4 μg NC12, 0.036 mM NC12", "value": 106.095}, {"measurement": "Fluor Int", "setting": "[1]; N/P 1.8, 6 μg NC12, 0.054 mM NC12", "value": 95.586}, {"measurement": "Fluor Int", "setting": "[1]; N/P 2.4, 8 μg NC12, 0.072 mM NC12", "value": 86.119}, {"measurement": "Fluor Int", "setting": "[1]; N/P 3.0, 10 μg NC12, 0.090 mM NC12", "value": 77.670}, {"measurement": "Fluor Int", "setting": "[1]; N/P 3.6, 12 μg NC12, 0.108 mM NC12", "value": 68.208}, {"measurement": "Fluor Int", "setting": "[1]; N/P 4.2, 14 μg NC12, 0.126 mM NC12", "value": 62.115}, {"measurement": "Fluor Int", "setting": "[1]; N/P 4.8, 16 μg NC12, 0.144 mM NC12", "value": 60.158}, {"measurement": "Fluor Int", "setting": "[1]; N/P 5.4, 18 μg NC12, 0.162 mM NC12", "value": 53.467}, {"measurement": "Fluor Int", "setting": "[1]; N/P 6.0, 20 μg NC12, 0.180 mM NC12", "value": 46.790}, {"measurement": "Fluor Int", "setting": "[1]; N/P 6.5, 22 μg NC12, 0.198 mM NC12", "value": 43.375}, {"measurement": "Fluor Int", "setting": "[1]; N/P 7.1, 24 μg NC12, 0.216 mM NC12", "value": 45.000}]}
{"compound": "GL3-153: siRNA duplex, SEQ ID 12 and its compliment SEQ ID 13, Dharmacon (sense CUUACGCUGAGUACUUCGATT; antisense UCGAAGUACUCAGCGUAAGTT; sugars from the 5' end r19 d2, backbone not given here; listed as Photinus pyralis)", "values": [{"measurement": "inhibition of luciferase expression", "setting": "[2]", "value": "inhibits luciferase expression"}]}
